According to patent publication US10617691B2, “Combination of an anti-CD19 antibody and a Bruton's tyrosine kinase inhibitor and uses thereof” (MORPHOSYS AG, priority 2015, dated 2020):

Tested on: MEC-1 cells
Assay: ADCC target cell killing of MEC-1 cells by NK cells (FACS, DAPI positive dead target cells), MOR00208 and Ibrutinib alone and in combination
Format: cell-based
Protocol: Cell lines tested: MEC-1 cells (DSMZ # ACC497). Cell lines are tested: chronic B-cell leukemia cell line; JVM-2 (ATCC® CRL-3002) a mantle cell lymphoma cell line; Ramos cells (ATCC number CRL-1596), a human Burkitt's lymphoma cells; HG-3 (DSMZ # ACC765), and CII (DSMZ # ACC773) are a chronic lymphocytic leukemia cell line; Su-DHL 6 (DSMZ # ACC572), U2932 (DSMZ # ACC633) and OCI-LY7 (DSMZ # ACC688) are a Diffuse large B-cell lymphoma (DLBCL) cell line; JVM-2 (ATCC® CRL-3002) is a mantle cell lymphoma cell line; and BALL-1 (DSMZ # ACC742) is an acute lymphoblastic leukemia cell line.
The cytotoxicity of MOR00208 and Ibrutinib alone and in combination were tested in the MEC-1 cell line (CLL). The cytotoxicity of MOR00208 and Ibrutinib alone and in combination are tested in the following target cell lines: JVM-2, Ramos, HG-3, CII, Su-DHL 6, U2932, OCI-LY7, JVM-2 and BALL-1.
Ibrutinib is a covalent inhibitor of Bruton's tyrosine kinase and should abrogate proliferation in target cell lines. MOR00208 targets CD19 and mediates target cell killing via ADCC. Target cell killing is measured using the following parameters: Ibrutinib at a concentration range of between 0.033 and 33 μM, specifically at 0.3 μM, 1.0 μM and 3.0 μM; MOR00208 at a concentration range from 0.001-10 nM, specifically at 0.01 nM, 0.1 nM, and 10 nM, and the combination of MOR00208 and Ibrutinib. The following are used as controls: RefmAb33 or NK cells alone. In the Ibrutinib group as well as in the MOR00208+Ibrutinib combination group, target cells are pre-treated with Ibrutinib for 7 days prior to the ADCC assay measurements. The target cells are counted and stained using 1 μg/ml CFSE end concentration. For DMSO treated target cells, an effector: target (E:T) ratio of 2:1 is chosen, corresponding to a cell density of 5×10^5/ml. The proliferative effect on target cells caused by Ibrutinib treatment was included by adjusting the E:T ratio in inhibitor treated cells. The NK cells are counted and adjusted to 1×10^6/ml. The target cell killing assays were performed as follows: using 96 well plates, 100 μl of target cell suspension was added per well, followed by 100 μl cell suspension of NK cells to each well resulting in an E:T ratio of 2:1. The antibodies were diluted in a range of 10-0.001 nM in medium. Cells were centrifuged and target: effector cell-pellets were re-suspended in 100 μl antibody-containing medium or the according control solution. The assay was incubated for 4 h in CO2-incubator at 37° C. After 10 min incubation on ice, 50 μl DAPI solution was added to each well (final concentration 1 μg/ml) and incubated on ice for 10 min. The cell killing measurements were performed with FACS-Verse. Dead target cells were DAPI positive.
In total, three experiments were performed in order to determine the mediation of ADCC on MEC-1 cells by the combination of MOR00208 and Ibrutinib.
The raw data (% dead cells) are analyzed as follows: 1) from the raw data (% dead cells), the background (controls) are subtracted, resulting in the specific killing for each treatment group; then 2) the specific killing values are normalized by setting the combination of MOR00208+Ibrutinib to 1.
Combination Index (CI) calculations are completed in order to determine synergy of the combination of the exemplified anti-CD19 antibody and Ibrutinib as compared to MOR00208 and Ibrutinib alone. Such calculations are described in Ting-Chao Chou, Theoretical Basis, Experimental Design, and Computerized Simulation of Synergism and Antagonism in Drug Combination Studies, Pharmacol Rev 58:621-681 (2006), which is incorporated by reference in its entirety and Chou T C, Talalay P, Quantitative analysis of dose-effect relationships: the combined effects of multiple drugs or enzyme inhibitors. Adv Enzyme Regul 22: 27-55 (1984), which is incorporated by reference in its entirety. The methods of Chou-Talalay are carried out using the CI-isobol method. […]

[1] = Experiment 1, Ibrutinib at 0.3 μM, MOR00208 0.01 nM, control (0.1% DMSO/Ref33) 25.27
[2] = Experiment 1, Ibrutinib at 0.3 μM, MOR00208 0.1 nM, control (0.1% DMSO/Ref33) 25.27
[3] = Experiment 1, Ibrutinib at 0.3 μM, MOR00208 10 nM, control (0.1% DMSO/Ref33) 25.27
[4] = Experiment 1, Ibrutinib at 1 μM, MOR00208 0.01 nM, control (0.1% DMSO/Ref33) 25.27
[5] = Experiment 1, Ibrutinib at 1 μM, MOR00208 0.1 nM, control (0.1% DMSO/Ref33) 25.27
[6] = Experiment 1, Ibrutinib at 1 μM, MOR00208 10 nM, control (0.1% DMSO/Ref33) 25.27
[7] = Experiment 1, Ibrutinib at 3 μM, MOR00208 0.01 nM, control (0.1% DMSO/Ref33) 25.27
[8] = Experiment 1, Ibrutinib at 3 μM, MOR00208 0.1 nM, control (0.1% DMSO/Ref33) 25.27
[9] = Experiment 1, Ibrutinib at 3 μM, MOR00208 10 nM, control (0.1% DMSO/Ref33) 25.27
[10] = Experiment 2, Ibrutinib at 0.3 μM, MOR00208 0.01 nM, control (0.03% DMSO/Ref33) 9.81
[11] = Experiment 2, Ibrutinib at 0.3 μM, MOR00208 0.1 nM, control (0.03% DMSO/Ref33) 9.81
[12] = Experiment 2, Ibrutinib at 0.3 μM, MOR00208 10 nM, control (0.03% DMSO/Ref33) 9.81
[13] = Experiment 2, Ibrutinib at 1 μM, MOR00208 0.01 nM, control (0.03% DMSO/Ref33) 9.81
[14] = Experiment 2, Ibrutinib at 1 μM, MOR00208 0.1 nM, control (0.03% DMSO/Ref33) 9.81
[15] = Experiment 2, Ibrutinib at 1 μM, MOR00208 10 nM, control (0.03% DMSO/Ref33) 9.81
[16] = Experiment 2, Ibrutinib at 3 μM, MOR00208 0.01 nM, control (0.03% DMSO/Ref33) 9.81
[17] = Experiment 2, Ibrutinib at 3 μM, MOR00208 0.1 nM, control (0.03% DMSO/Ref33) 9.81
[18] = Experiment 2, Ibrutinib at 3 μM, MOR00208 10 nM, control (0.03% DMSO/Ref33) 9.81
[19] = Experiment 3, Ibrutinib at 0.3 μM, MOR00208 0.01 nM, control (0.03% DMSO/Ref33) 16.40
[20] = Experiment 3, Ibrutinib at 0.3 μM, MOR00208 0.1 nM, control (0.03% DMSO/Ref33) 16.40
[21] = Experiment 3, Ibrutinib at 0.3 μM, MOR00208 10 nM, control (0.03% DMSO/Ref33) 16.40
[22] = Experiment 3, Ibrutinib at 1 μM, MOR00208 0.01 nM, control (0.03% DMSO/Ref33) 16.40
[23] = Experiment 3, Ibrutinib at 1 μM, MOR00208 0.1 nM, control (0.03% DMSO/Ref33) 16.40
[24] = Experiment 3, Ibrutinib at 1 μM, MOR00208 10 nM, control (0.03% DMSO/Ref33) 16.40
[25] = Experiment 3, Ibrutinib at 3 μM, MOR00208 0.01 nM, control (0.03% DMSO/Ref33) 16.40
[26] = Experiment 3, Ibrutinib at 3 μM, MOR00208 0.1 nM, control (0.03% DMSO/Ref33) 16.40
[27] = Experiment 3, Ibrutinib at 3 μM, MOR00208 10 nM, control (0.03% DMSO/Ref33) 16.40

## C=CC(=O)N1CCC[C@@H](n2nc(-c3ccc(Oc4ccccc4)cc3)c3c(N)ncnc32)C1 [Ibrutinib, 1-[(3R)-3-[4-amino-3-(4-phenoxyphenyl)-1H-pyrazolo[3,4-d]pyrimidin-1-yl]-1-piperidinyl]-2-propen-1-one]
[1]
  percent (%) dead cells (raw data): 21.99%
[2]
  percent (%) dead cells (raw data): 21.99%
[3]
  percent (%) dead cells (raw data): 21.99%
[4]
  percent (%) dead cells (raw data): 24.33%
[5]
  percent (%) dead cells (raw data): 24.33%
[6]
  percent (%) dead cells (raw data): 24.33%
[7]
  percent (%) dead cells (raw data): 17.07%
[8]
  percent (%) dead cells (raw data): 17.07%
[9]
  percent (%) dead cells (raw data): 17.07%
[10]
  percent (%) dead cells (raw data): 8.56%
[11]
  percent (%) dead cells (raw data): 8.56%
[12]
  percent (%) dead cells (raw data): 8.56%
[13]
  percent (%) dead cells (raw data): 8.39%
[14]
  percent (%) dead cells (raw data): 8.39%
[15]
  percent (%) dead cells (raw data): 8.39%
[16]
  percent (%) dead cells (raw data): 10.84%
[17]
  percent (%) dead cells (raw data): 10.84%
[18]
  percent (%) dead cells (raw data): 10.84%
[19]
  percent (%) dead cells (raw data): 8.56%
[20]
  percent (%) dead cells (raw data): 8.56%
[21]
  percent (%) dead cells (raw data): 8.56%
[22]
  percent (%) dead cells (raw data): 7.50%
[23]
  percent (%) dead cells (raw data): 7.50%
[24]
  percent (%) dead cells (raw data): 7.50%
[25]
  percent (%) dead cells (raw data): 8.26%
[26]
  percent (%) dead cells (raw data): 8.26%
[27]
  percent (%) dead cells (raw data): 8.26%

B1: MOR00208: anti-CD19 antibody; heavy chain SEQ ID NO: 14, light chain SEQ ID NO: 15 (antibody)
heavy: EVQLVESGGGLVKPGGSLKLSCAASGYTFTSYVMHWVRQAPGKGLEWIGYINPYNDGTKYNEKFQGRVTISSDKSISTAYMELSSLRSEDTAMYYCARGTYYYGTRVFDYWGQGTLVTVSSASTKGPSVFPLAPSSKSTSGGTAALGCLVKDYFPEPVTVSWNSGALTSGVHTFPAVLQSSGLYSLSSVVTVPSSSLGTQTYICNVNHKPSNTKVDKKVEPKSCDKTHTCPPCPAPELLGGPDVFLFPPKPKDTLMISRTPEVTCVVVDVSHEDPEVQFNWYVDGVEVHNAKTKPREEQFNSTFRVVSVLTVVHQDWLNGKEYKCKVSNKALPAPEEKTISKTKGQPREPQVYTLPPSREEMTKNQVSLTCLVKGFYPSDIAVEWESNGQPENNYKTTPPMLDSDGSFFLYSKLTVDKSRWQQGNVFSCSVMHEALHNHYTQKSLSLSPGK
light: DIVMTQSPATLSLSPGERATLSCRSSKSLQNVNGNTYLYWFQQKPGQSPQLLIYRMSNLNSGVPDRFSGSGSGTEFTLTISSLEPEDFAVYYCMQHLEYPITFGAGTKLEIKRTVAAPSVFIFPPSDEQLKSGTASVVCLLNNFYPREAKVQWKVDNALQSGNSQESVTEQDSKDSTYSLSSTLTLSKADYEKHKVYACEVTHQGLSSPVTKSFNRGEC
[1]
  percent (%) dead cells (raw data): 56.54%
[2]
  percent (%) dead cells (raw data): 72.31%
[3]
  percent (%) dead cells (raw data): 73.77%
[4]
  percent (%) dead cells (raw data): 56.54%
[5]
  percent (%) dead cells (raw data): 72.31%
[6]
  percent (%) dead cells (raw data): 73.77%
[7]
  percent (%) dead cells (raw data): 56.54%
[8]
  percent (%) dead cells (raw data): 72.31%
[9]
  percent (%) dead cells (raw data): 73.77%
[10]
  percent (%) dead cells (raw data): 37.57%
[11]
  percent (%) dead cells (raw data): 52.10%
[12]
  percent (%) dead cells (raw data): 50.83%
[13]
  percent (%) dead cells (raw data): 37.57%
[14]
  percent (%) dead cells (raw data): 52.10%
[15]
  percent (%) dead cells (raw data): 50.83%
[16]
  percent (%) dead cells (raw data): 37.57%
[17]
  percent (%) dead cells (raw data): 52.10%
[18]
  percent (%) dead cells (raw data): 50.83%
[19]
  percent (%) dead cells (raw data): 63.68%
[20]
  percent (%) dead cells (raw data): 81.30%
[21]
  percent (%) dead cells (raw data): 81.41%
[22]
  percent (%) dead cells (raw data): 63.68%
[23]
  percent (%) dead cells (raw data): 81.30%
[24]
  percent (%) dead cells (raw data): 81.41%
[25]
  percent (%) dead cells (raw data): 63.68%
[26]
  percent (%) dead cells (raw data): 81.30%
[27]
  percent (%) dead cells (raw data): 81.41%
